Source: patent US9090632B2, “Bicyclic oxazole and thiazole compounds and their use as allosteric modulators of mGluR5 receptors” (Vanderbilt University, priority 2010, dated 2015)

Target: human mGluR5 (Homo sapiens, UniProt P41594)
Assay: Cell-based functional Ca2+ mobilization assay, potentiation of glutamate EC20 response (H10H cell-line)
Details: H10H cell-line expressing recombinant human mGluR5; for Emax / Emax (%): in presence of glutamate EC20, normalized to maximal glutamate response; for EC50 / pEC50: potentiation in presence of glutamate EC20
Description: Human embryonic kidney (HEK) cells transfected with rat mGluR5 were plated in clear bottom assay plates for assay in a Functional Drug Screening System (FDSS). In the alternative assay, HEK cells transfected with human mGluR5 were plated for assay in the FDSS. In some cases the HEK cells transfected with human mGluR5 are the H10H cell line. Alternatively, the HEK cells transfected with human mGluR5 are the H12H cell line. […] The cells were loaded with a Ca^2+-sensitive fluorescent dye (e.g., Fluo-4), and the plates were washed and placed in the FDSS instrument. After establishment of a fluorescence baseline for about three seconds, the compounds of the present invention were added to the cells, and the response in cells was measured. Five minutes later, an mGluR5 agonist (e.g., glutamate, 3,5-dihydroxyphenylglycine, or quisqualate) was added to the cells, and the response of the cells was measured. Potentiation of the agonist response of mGluR5 by the compounds in the present invention was observed as an increase in response to non-maximal concentrations of agonist (here, glutamate) in the presence of compound compared to the response to agonist in the absence of compound.
The above described assay can be operated in two modes. In the first mode, a range of concentrations of the present compounds were added to cells, followed by a single fixed concentration of agonist. If a compound acted as a potentiator, an EC50 value for potentiation and a maximum extent of potentiation by the compound at this concentration of agonist was determined by non-linear curve fitting. In the second mode, several fixed concentrations of the present compounds were added to various wells on a plate, followed by a range of concentrations of agonist for each concentration of present compound; the EC50 values for the agonist at each concentration of compound were determined by non-linear curve fitting. A decrease in the EC50 value of the agonist with increasing concentrations of the present compounds (a leftward shift of the agonist concentration-response curve) is an indication of the degree of mGluR5 potentiation at a given concentration of the present compound. An increase in the EC50 value of the agonist with increasing concentrations of the present compounds (a rightward shift of the agonist concentration-response curve) is an indication of the degree of mGluR5 antagonism at a given concentration of the present compound. The second mode also indicates whether the present compounds also affect the maximum response to mGluR5 to agonists.
Human mGluR5a cDNA in pCMV6-XL6 mammalian expression plasmid was purchased from OriGene Technologies, Inc. (catalogue number SC326357) and subcloned into pcDNA3.1(−). Human embryonic kidney (HEK) 293A cells were then transfected with human mGluR5a pcDNA3.1(−) using LipofectAmine 2000 (Invitrogen) and monoclones were selected and tested for functional response using a Ca^2+ mobilization assay. Monoclones were named for the species (“H” for human) plus the location on the plate (e.g. “10H”).
HEK cells transfected with the human mGluR5a receptor were plated at 15,000 cells/well in clear-bottomed poly-D-lysine-coated assay plates (BD Falcon) in glutamate-glutamine-free growth medium and incubated overnight at 37° C. and 5% CO2. The cell-line used to obtain the data reported herein was the H10H cell-line expressing the human mGluR5 receptor. Although the H10H cell-line was used to obtain the data shown herein, the H12H cell-line expressing the human mGluR5 receptor can also be used in these assays. The following day, the growth medium was removed and the cells were washed with assay buffer containing 1× Hank's balanced salt solution (Invitrogen, Carlsbad, Calif.), 20 mM HEPES, 2.5 mM probenecid, pH 7.4 and left with 20 μL of this reagent. Following this step, the cells were loaded with calcium indicator dye, fluo-4 AM, to a final concentration of 2 μM and incubated for 40-45 min at 37° C. […]

human mGluR5, sequence (P41594 21-1180 isoform P41594-2 limits assumed): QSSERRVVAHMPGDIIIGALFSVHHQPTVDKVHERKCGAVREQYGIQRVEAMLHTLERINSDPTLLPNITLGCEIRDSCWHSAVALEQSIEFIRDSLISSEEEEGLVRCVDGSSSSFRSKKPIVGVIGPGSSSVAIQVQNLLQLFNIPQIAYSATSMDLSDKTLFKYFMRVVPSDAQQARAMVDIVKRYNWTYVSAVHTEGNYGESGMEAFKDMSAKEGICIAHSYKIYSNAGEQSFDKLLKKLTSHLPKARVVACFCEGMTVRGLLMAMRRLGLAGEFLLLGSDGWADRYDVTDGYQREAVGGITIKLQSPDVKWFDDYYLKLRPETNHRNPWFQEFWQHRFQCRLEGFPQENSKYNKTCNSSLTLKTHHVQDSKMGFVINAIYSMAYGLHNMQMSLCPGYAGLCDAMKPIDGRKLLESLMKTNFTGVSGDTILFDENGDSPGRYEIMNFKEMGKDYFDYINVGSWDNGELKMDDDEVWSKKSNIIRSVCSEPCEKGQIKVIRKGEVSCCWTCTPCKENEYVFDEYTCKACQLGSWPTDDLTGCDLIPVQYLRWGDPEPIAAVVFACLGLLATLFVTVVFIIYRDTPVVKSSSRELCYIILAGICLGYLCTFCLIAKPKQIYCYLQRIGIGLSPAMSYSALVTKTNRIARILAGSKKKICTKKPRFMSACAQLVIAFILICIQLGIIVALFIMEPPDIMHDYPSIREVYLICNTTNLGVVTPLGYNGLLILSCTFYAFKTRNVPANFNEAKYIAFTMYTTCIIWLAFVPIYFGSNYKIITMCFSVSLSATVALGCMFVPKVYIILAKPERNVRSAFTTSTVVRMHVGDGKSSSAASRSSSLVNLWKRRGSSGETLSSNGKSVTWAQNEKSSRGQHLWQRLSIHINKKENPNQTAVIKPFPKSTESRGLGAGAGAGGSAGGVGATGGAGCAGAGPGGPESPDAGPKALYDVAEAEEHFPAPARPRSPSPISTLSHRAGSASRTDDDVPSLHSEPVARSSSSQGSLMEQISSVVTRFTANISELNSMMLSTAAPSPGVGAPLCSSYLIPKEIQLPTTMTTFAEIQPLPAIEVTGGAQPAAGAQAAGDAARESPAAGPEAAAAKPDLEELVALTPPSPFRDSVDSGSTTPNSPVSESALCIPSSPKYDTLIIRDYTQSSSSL

Emax [%]	EC50 [µM]	Emax (%)	pEC50	SMILES
67	> 10			O=C(c1cc2ccccc2o1)N1CCc2nc(COc3ccccc3)oc2C1 [Example B120]
20	> 10			Cc1nc(C(=O)N2CCc3nc(COc4ccccc4)oc3C2)no1 [Example B161]
24	4.17			CC(C)(C)[C@H](N)C(=O)N1CCc2nc(COc3ccccc3)oc2C1 [Example B54]
82	0.372			O=C(c1c(F)cccc1F)N1CCc2nc(COc3ccccc3)oc2C1 [Example B16]
		54	<5	O=C(c1ccccn1)N1CCc2nc(COc3ccccc3)oc2C1 [Example B23]
61	1.2			O=C(Cc1ccc(F)cc1)N1CCc2nc(COc3ccccc3)oc2C1 [Example B134]
		45	<5	N#Cc1cc(F)cc(OCc2nc3c(o2)CN(C(=O)c2ccc(F)cc2)CC3)c1 [Example B136]
		62	5.49	O=C(c1ccc(F)cc1)N1CCc2nc(COc3cncc(F)c3)oc2C1 [Example B48]
		83	6.35	O=C(c1ccc(F)cc1)N1CCCc2nc(COc3ccccc3)sc2C1 [Example B25]
72	0.389			O=C(c1n[nH]c2ccccc12)N1CCc2nc(COc3ccccc3)oc2C1 [Example B126]
		68	6.67	O=C(c1ccc(C(F)(F)F)o1)N1CCc2nc(COc3ccccc3)oc2C1 [Example B122]
71	2.4			O=C(c1ccc(F)cc1)N1CCc2nc(COc3ccccn3)oc2C1 [Example B68]
49	> 10			Cc1ccc(C(=O)N2CCc3nc(COc4ccccc4)oc3C2)cn1 [Example B132]
57	> 10			O=C(c1ncccc1Cl)N1CCc2nc(COc3ccccc3)oc2C1 [Example B74]
57	2.4			Cc1ccccc1OCc1nc2c(o1)CN(C(=O)c1ccc(F)cc1)CC2 [Example B37]
27	> 30.2			Cn1cncc1C(=O)N1CCc2nc(COc3ccccc3)oc2C1 [Example B158]
		58	5.77	CC(C)(C)OC(=O)NC(C(=O)N1CCc2nc(COc3ccccc3)oc2C1)C(C)(C)C (stereo not shown) [Example B140]
61	0.407			O=C(c1coc2ccccc12)N1CCc2nc(COc3ccccc3)oc2C1 [Example B146]
		57	7.14	O=C(c1ccc(Cl)o1)N1CCc2nc(COc3ccccc3)oc2C1 [Example B57]
		72	5.89	N#Cc1cc(C(=O)N2CCc3nc(COc4ccccc4)oc3C2)ccn1 [Example B87]
52.5	0.302			Cc1ccc(C(=O)N2CCc3nc(COc4ccccc4)oc3C2)o1 [Example B61]
60	4.07			O=C(c1ncc(F)cc1F)N1CCc2nc(COc3ccccc3)oc2C1 [Example B38]
		66	5.51	O=C(c1ccc(F)cn1)N1CCc2nc(COc3cccc(F)c3)oc2C1 [Example B45]
53	> 10			CC(=O)N1CCc2nc(COc3ccccc3)oc2C1 [Example B24]
60			6.19	O=C(c1ccc(F)cc1)N1CCc2nc(COc3ccc(F)c(F)c3)oc2C1 [Example B11]
		24	<4.52	N#Cc1cc(Br)cc(OCc2nc3c(o2)CN(C(=O)c2ccc(F)cc2)CC3)c1 [Example B137]

Emax [%]	EC50 [µM]	Emax (%)	pEC50	SMILES
47	0.132			O=C(c1cc(F)cc(F)c1)N1CCc2nc(COc3ccccc3)oc2C1 [Example B3, 5-[(3,5-difluorophenyl)carbonyl]-2-(phenoxymethyl)-4,5,6,7-tetrahydro[1,3]oxazolo[5,4-c]pyridine]
59	0.813			O=C(CCc1ccccc1)N1CCc2nc(COc3ccccc3)oc2C1 [Example B64]
		51	6.72	Cc1ccoc1C(=O)N1CCc2nc(COc3ccccc3)oc2C1 [Example B121]
68	1.15			O=C(c1ccc(F)cc1)N1CCc2nc(COc3ccccc3F)oc2C1 [Example B13]
60.5	0.245			O=C(c1cccc(F)c1)N1CCc2nc(COc3ccc(F)cc3)oc2C1 [Example B100]
69	4.79			O=C(c1ccncc1)N1CCc2nc(COc3ccccc3)oc2C1 [Example B19]
		72	5.85	O=C(c1ccc(F)cc1)N1CCc2nc(COc3cccc(Cl)c3)oc2C1 [Example B69]
63	1.62			N#Cc1ccccc1C(=O)N1CCc2nc(COc3ccccc3)oc2C1 [Example B46]
		66	6.34	COc1ccc(C(=O)N2CCc3nc(COc4ccccc4)oc3C2)s1 [Example B102]
		45	<5	Cc1cc(C(=O)N2CCc3nc(COc4ccccc4)oc3C2)no1 [Example B157]
		23	<4.52	O=C(c1nccs1)N1CCc2nc(COc3ccccc3)oc2C1 [Example B159]
34	0.339			CC(C)(C#N)C(=O)N1CCc2nc(COc3ccccc3)oc2C1 [Example B62]
14				CC(C)(C)OCC(=O)N1CCc2nc(COc3ccccc3)oc2C1 [Example B55]
		16	<4.52	O=C(c1ncccn1)N1CCc2nc(COc3ccccc3)oc2C1 [Example B160]
62	> 10			COCc1ccc(C(=O)N2CCc3nc(COc4ccccc4)oc3C2)o1 [Example B104]
92	0.501			O=C(c1ccc(F)cc1F)N1CCc2nc(COc3ccccc3)oc2C1 [Example B6]
69	2			Cc1ccnc(OCc2nc3c(o2)CN(C(=O)c2ccc(F)cc2)CC3)c1 [Example B33, 5-[(4-fluorophenyl)carbonyl]-2-{[(4-methylpyridin-2-yl)oxy]methyl}-4,5,6,7-tetrahydro[1,3]oxazolo[5,4-c]pyridine]
61	0.0851			O=C(c1ccc(Br)o1)N1CCc2nc(COc3ccccc3)oc2C1 [Example B106]
47	1.82			O=C(c1ccc(F)cc1)N1CCc2nc(/C=C/c3ccccc3)oc2CC1 [Example B31, 6-(4-fluorobenzoyl)-5,6,7,8-tetrahydro-2-[(E)-2-phenylethenyl]-4H-oxazolo[4,5-d]azepine]
		61	5.92	O=C(Cc1ccc(F)cc1)N1CCc2nc(COc3ccccc3)oc2C1 [Example B51]
39			>5	O=C(c1n[nH]c2cccnc12)N1CCc2nc(COc3ccccc3)oc2C1 [Example B144]
17	> 30.2			O=C(c1cccnn1)N1CCc2nc(COc3ccccc3)oc2C1 [Example B162]
		64	5.7	Cc1cccc(C(=O)N2CCc3nc(COc4ccccc4)oc3C2)n1 [Example B44]
65	1.62			O=C(c1ccc(F)cc1)N1CCc2oc(COc3ccccc3)nc2C1 [Example B22]
56	0.501			Cn1c(C(=O)N2CCc3nc(COc4ccccc4)oc3C2)cc2ccccc21 [Example B36, 5-[(1-methyl-1H-indol-2-yl)carbonyl]-2-(phenoxymethyl)-4,5,6,7-tetrahydro[1,3]oxazolo[5,4-c]pyridine]
60	1.91			O=C(COc1ccccc1)N1CCc2nc(COc3ccccc3)oc2C1 [Example B80]
